Like-named read-outs stand apart in the source and are kept apart here.
Experiments:
[1] = tested on: ABCG2; details: cited from earlier work
[2] = tested on: ABCB1; details: cited from earlier work
[3] = human, 4 h
[4] = tested on: P388 cells; details: read-out: 72 h IC50, ref [2]; cited from earlier work
[5] = tested on: MCF-7 cells; details: read-out: 72 h IC50, ref [2]; cited from earlier work
[6] = tested on: HCT-116 cells; details: read-out: 72 h IC50, ref [2]; cited from earlier work
[7] = tested on: Topo I cleavage complexes; details: drug 1 μM, compared with CPT or SN-38; ref [2]; cited from earlier work
[8] = tested on: cell cycle; details: in vitro; ref [2]; cited from earlier work

Structure (SMILES) | Substrate for the efflux pump ABCG2 ([1]; ref [2]) | Substrate for the efflux pump ABCG2 ([1]; not told) | Substrate for ABCB1 [2] | Protein binding in human plasma | Stability in plasma at room temperature [3] | IC50 [4] | IC50 [5] | IC50 [6] | Persistence of Topo I cleavage complexes after removal of drug [7] | Cell cycle arrest [8]
CC[C@@]1(O)C(=O)OCc2c1cc1n(c2=O)Cc2cc3ccccc3nc2-1 [Camptothecin, camptothecin] | good substrates | – | – | – | – | – | – | – | – | –
COc1cc2c3c(n(CCCN4CCOCC4)c(=O)c2cc1OC)-c1cc2c(cc1C3=O)OCO2 [NSC 724998] | – | not a substrate | not a substrate | – | – | – | – | – | – | –
COc1cc2c3c(n(CCCn4ccnc4)c(=O)c2cc1OC)-c1cc2c(cc1C3=O)OCO2 [NSC 725776] | – | moderate substrate | moderate substrate | > 98% | > 94.3% | < 30 nM | 90 nM | 130 nM | persisted longer | cell cycle arrest in both S and G(2)-M
COc1cc2c3c(n(CCCN4CCOCC4)c(=O)c2cc1OC)-c1cc2c(cc1C3=O)OCO2.Cl [NSC 743400] | – | – | – | > 98% | > 94.3% | 300 nM | 560 nM | 1200 nM | persisted longer | cell cycle arrest in both S and G(2)-M
CCc1c2c(nc3ccc(O)cc13)-c1cc3c(c(=O)n1C2)COC(=O)[C@]3(O)CC [SN-38] | good substrates | – | – | – | – | – | – | – | – | –
CC[C@@]1(O)C(=O)OCc2c1cc1n(c2=O)Cc2cc3c(CN(C)C)c(O)ccc3nc2-1 [topotecan] | good substrates | – | – | – | – | – | – | – | – | –
